For one experiment, the system named is BJ-TERT fibroblast cells. Briefly: Scratch assay of tissue regeneration and cell proliferation. It counts as cell-based. The settings on record: 2 weeks treatment; 800 um scratch; % filling 16 hours later. Here is the method: BJ-TERT fibroblast cells at passage 8 were seeded at 50,000 cells/well on 6 well plates in DMEM 10% FBS. The following day the cells were treated with various cocktails listed below for 2 weeks:
Following treatment, at confluence an 800 um scratch was made and % filling evaluated 16 hours later. Filling of scratch of treated cells were compared to that of control.

Another experiment has as its system COX7A1. Briefly: qPCR of COX7A1 after valproic acid treatment. Format: cell-based. To be noted: 28 days, adult derived dermal fibroblasts. Here is the method:
Adult derived dermal fibroblasts were cultured in DMEM 10% FBS in wells of 6 well plates and treated with valproic acid at 0.5 mM and 1 mM for 28 days. On day 28 the media was removed, the cells were washed with PBS, and then lysed using RLT with beta-mercaptoethanol (Qiagen Cat 79216). Total RNA was extracted using Qiagen RNeasy mini-kits (Qiagen Cat 74106) following manufacturers instructions. Then cDNA was prepared using ThermoFisher superscript III (Cat. 18080044). qPCR was run on an Applied Biosystems 7500 Real-Time PCR System employing SDSv2.3 software to evaluate the expression of COX7A1 (which is a definitive indicator of adult phenotype) relative to GAPDH of the treated line relative to the untreated line.
(In qPCR the cycle at which signal appears reflects the starting amount.)

Experiment [1] relates to Xgene fibroblasts (human foreskin). Briefly: Cell number of early and late passage fibroblasts (senolytic activity). It counts as cell-based. The settings on record: for cell number, Avg / cell number, single wells: 20,000 cells/well seeded; for cell number, Avg / cell number, single wells / cell number compared to controls, in words: 1 week; for Fold change of cell number: relative to control (growth medium alone). On the procedure: Xgene fibroblasts (human foreskin, obtained from Xgene, Sausilito Calif.) were seeded at early (P9) and late (P33) passage at 20,000 cells/well (0.1% gelatin coated 24 well plate) in growth medium (DMEM+10% FBS). The following day they were refed medium with the additive listed below for 1 week and fed every other day and then counted.

The next experiment concerns 4D20.8 and MSCs. Briefly: TUNEL apoptosis assay, embryonic vs adult mesenchymal cells. To be noted: 3.7 nM; 24 hours; 4D20.8 vs MSC; FIG. 7. Format: cell-based, human. Here is the method: (§1) Optimized conditions were identified for distinguishing the increased apoptosis anticipated by cells with a pre-fetal pattern of gene expression. Embryonic and adult-derived mesenchymal (4D20.8 and MSCs respectively) and vascular endothelial cells (30MV2-6 and HAEC respectively) were treated with diverse stimuli for apoptosis including: Camptothecin (CPT), H2O2, and Thapsigargin (TG) at two concentrations each as well as a vehicle control. The compounds were applied for 24 hours prior to analysis. After treatment apoptosis was monitored via TUNEL staining using the In Situ Cell Death Detection kit (Roche, cat #12156792910) following the manufacturer's instructions. […] This assay is therefore useful in determining the effectiveness of iTR factors in inducing senolysis in aged cells and in CSCs.

A further experiment has as its system 30MV2-6 and HAEC. Briefly: TUNEL apoptosis assay, embryonic vs adult vascular endothelial cells. It counts as cell-based, human. To be noted: 3.7 nM; 24 hours; 30MV2-6 vs HAEC; FIG. 7. On the procedure: as §1

“And” between values parts separate entries of the source, which are not always exact repeats. Identical values can stand only once.

In the case of `CCCC(CCC)C(=O)O` [valproic acid], in the experiment on BJ-TERT fibroblast cells, the “Fold Increase Over Control (filling of scratch)” value was found to be 1.4. Moreover, the “COX7A1 expression (normalized to GAPDH) compared to control (untreated)” value with COX7A1 (0.5 mM) was “negligible effect”; with COX7A1 (1 mM), 0.001. In addition, the “cell number, Avg” value in experiment [1] (early passage P9) is on record as 226,000; in experiment [1] (late passage P33) it was 67,000. The “cell number, single wells” value in experiment [1] (early passage P9, listed as Cond. B) was 228,000 and 224,000; in experiment [1] (late passage P33, listed as Cond. B), 62,000 and 72,000. Besides, the results for the “Fold change of cell number” value in experiment [1] (early passage P9) and in experiment [1] (late passage P33) were 1.2 and 1.0, respectively. For the same molecule, in experiment [1] (late passage (P33)), the “cell number compared to controls, in words” value was “differential effect on late passage cells”.
On to `C/C=C(/C)C(=O)O[C@H]1C(C)=C2[C@H]([C@@H]1OC(=O)CCCCCCC)[C@@](C)(OC(C)=O)C[C@H](OC(=O)CCC)[C@@]1(O)[C@H]2OC(=O)[C@@]1(C)O` [Thapsigargin], for which, in the experiment on 4D20.8 and MSCs, the “apoptosis (TUNEL), embryonic mesenchymal cells compared to adult counterparts” value is “robust statistically-significant increase in apoptosis”. The “apoptosis (TUNEL), embryonic endothelial cells compared to adult counterparts” value in the experiment with 30MV2-6 and HAEC was “robust statistically-significant increase in apoptosis”.

B1: A: LIN28A-11R (LD Biopharma HTF 0046) 4 ug/ml (protein, UniProt Q9H9Z2 2-209, looked up)
Protein lin-28 homolog A: GSVSNQQFAGGCAKAAEEAPEEAPEDAARAADEPQLLHGAGICKWFNVRMGFGFLSMTARAGVALDPPVDVFVHQSKLHMEGFRSLKEGEAVEFTFKKSAKGLESIRVTGPGGVFCIGSERRPKGKSMQKRRSKGDRCYNCGGLDHHAKECKLPPQPKKCHFCQSISHMVASCPLKAQQGPSAQGKPTYFREEEEEIHSPTLLPEAQN
modifications: C-terminal 11-arginine cell-penetrating tag
notes: LIN28A-11R (LD Biopharma HTF 0046) 4 ug/ml
Consider B1, for which the “Fold Increase Over Control (filling of scratch)” value in the experiment with BJ-TERT fibroblast cells was 1.2. Moreover, the “cell number compared to controls, in words” value is given as “heightened cell number” in experiment [1] (early passage (P9)); “differential effect on late passage cells” in experiment [1] (late passage (P33)); “reduced cell number” in experiment [1] (late passage (P33), listed as condition A). Also, the “cell number, Avg” value is given as 254,000 in experiment [1] (early passage P9) and 48,000 in experiment [1] (late passage P33). In addition, the “cell number, single wells” value in experiment [1] (early passage P9, listed as Cond A) is 220,000 and 288,000; in experiment [1] (late passage P33, listed as Cond A), 46,000 and 50,000. The “Fold change of cell number” value in experiment [1] (early passage P9) came to 1.3; in experiment [1] (late passage P33), 0.8.

Source of the values: US20210180013A1, “IMPROVED METHODS FOR INDUCING TISSUE REGENERATION AND SENOLYSIS IN MAMMALIAN CELLS” (AgeX Therapeutics, Inc., priority 2018, published 2021).
